Source: patent publication US6709873B1, “Method for production of antibodies to specific sites of rapamycin” (Isodiagnostika Inc., priority 1997, dated 2004)

How the values were obtained:
MoAb R-1-5 = assay: Inhibition ELISA of MoAb R-1-5; assay type: binding, mouse; set-up: concentration or dose not given beside the values; conditions: tissue culture supernatant
Method: (§1) Inhibition ELISA Protocol
(§2) 1. Use Falcon® Pro-bind™ inununoplates.
(§3) 2. Dilute coating antigen to 1 μg/mL in carbonate-bicarbonate buffer.
(§4) Add 100 μL per well and incubate overnight at 4° C.
(§5) 3. On the same day prepare inhibiting antigen tubes. Aliquot antibodies into glass test tubes. Prepare appropriate antigen concentration in ethanol and add to aliquoted antibody at 10 μL ethanol solution/250 μL antibody.
(§6) Vortex tubes and incubate overnight at 4° C.
(§7) 4. Shake out wells and wash 3× with 200 μL PBS/0.05% TWEEN™ (polyoxyethylene-sorbitol) (v/v) per well.
(§8) 5. Add 200 μL blocking buffer per well (PBS/2% BSA (w/v)).
(§9) Incubate 60 min at room temperature.
(§10) 7. Transfer contents of inhibition tubes to antigen-coated plate, 100 μL per well. Incubate 60 min at 37° C.
(§11) 9. […] Add 100 μL per well and incubate at 37° C. for 60 min.
(§12) 11. […] Add 100 μL per well and incubate in the dark at room temperature. Absorbance can be read at 405 nm at approximately 15-min intervals.
(§13) To further characterize the reactivity of monoclonal antibodies from various clones, inhibition ELISA were performed.

MoAb R-1-1 = assay: Inhibition ELISA of MoAb R-1-1; assay type: binding, mouse; set-up: concentration or dose not given beside the values; conditions: tissue culture supernatant
Method: as §1, §2, §3, §4, §5, §6, §7, §8, §9, §10, §11, §12, §13

[1] = system: Rabbit #1 polyclonal antibody (Rapa-42-DVS-KLH immunogen); assay: Inhibition ELISA of rabbit #1 polyclonal serum; assay type: binding; set-up: concentration or dose not given beside the values; conditions: Rapa antigen coated ELISA plate
Method: as §1, §2, §3, §4, §5, §6, §7, §8, §9, §10, §11, §12

MoAb R-3-1 = assay: Inhibition ELISA of MoAb R-3-1; assay type: binding, mouse; set-up: concentration or dose not given beside the values; conditions: tissue culture supernatant
Method: as §1, §2, §3, §4, §5, §6, §7, §8, §9, §10, §11, §12, §13

[2] = system: Chicken polyclonal antibody (IgY, Rapa-42-DVS-KLH immunogen); assay: Inhibition ELISA of chicken IgY prep; assay type: binding; set-up: concentration or dose not given beside the values; conditions: Rapa antigen coated ELISA plate
Method: as §1, §2, §3, §4, §5, §6, §7, §8, §9, §10, §11, §12

MoAb R-2-2 = assay: Inhibition ELISA of MoAb R-2-2; assay type: binding, mouse; set-up: concentration or dose not given beside the values; conditions: tissue culture supernatant
Method: as §1, §2, §3, §4, §5, §6, §7, §8, §9, §10, §11, §12, §13

lymphocytes = assay: In vitro mixed lymphocyte reaction (MLR) assay, two-way lymphocyte proliferation; assay type: cell-based; conditions: 3H-thymidine incorporation
Description: The MLR assay is useful for identifying rapamycin metabolites with biological (immunosupressive) activity and to quantify this activity relative to the immunosuppressive activity of the parent rapamycin molecule.
An example of a two-way lymphocyte proliferation assay procedure useful for this purpose is as follows:
1. Collect blood from two individuals (20 mls each) and isolate lymphocytes using Ficoll-Paque™ (polysucrose and sodium diatrizoate) (Pharmacia Biotech).
2. Count lymphocytes at 1:10 dilution in 2% acetic acid (v/v).
3. Prepare 10 mls of each lymphocyte populations (A+B) at 1×10^6 cells/ml in DMEM/20% FCS (v/v).
4. Set up a 96 well sterile tissue culture plate, flat bottom (Sarstedt, cat # 83.1835). To each well add:
5. Aliquot 100 μl per well lymphocyte population A
6. Aliquot 100 μl per well lymphocyte population B
7. Aliquot 20 μl per well of drug (rapamycin and rapamycin metabolites M1-5) serially diluted 0 to 1000 μg/L in triplicate in DMEM with no supplements.
8. […]
10. […] Wash cells 3× with 1.0-ml sterile distilled water.
Note: All procedures are done using sterile techniques in a biological flow hood.
11. Place filters in Scintilation vials and add 1.5 mls of ScintiSafe Plus™ 50% scintillation fluid (Fisher, cat #SX-25-5).
12. Measure the amount of radioactivity incorporated in the lymphocytes using a beta counter (Micromedic System Inc., TAURUS™ Automatic Liquid Scintillation Counter) for 1.0 minute.
13. Calculate averages and standard deviations for each drug and express results as: [formula]

MoAb R-4-7 = assay: Inhibition ELISA of MoAb R-4-7; assay type: binding, mouse; conditions: tissue culture supernatant
Method: as §1, §2, §3, §4, §5, §6, §7, §8, §9, §10, §11, §12

[3] = system: Mouse polyclonal antibody Rapa-27 #12 (Rapa-27-ox-DVS-KLH immunogen); assay: Inhibition ELISA of mouse polyclonal serum Rapa-27 #12; set-up: concentration or dose not given beside the values; conditions: binding to Rapa-27-HSA
Method: as §1, §2, §3, §4, §5, §6, §7, §8, §9, §10, §11, §12

MoAb R-5-3 = assay: Inhibition ELISA of MoAb R-5-3; assay type: binding, mouse; conditions: tissue culture supernatant
Method: as §1, §2, §3, §4, §5, §6, §7, §8, §9, §10, §11, §12

[4] = Relative concentrations of Rapa metabolites in pooled whole blood patient samples (LC/MS); assay type: in vivo; conditions: Rapa = 1
Description: No individual metabolite is found at a concentration greater than 20% of the Rapa parent level.

MoAb R-4-1 = assay: Inhibition ELISA of MoAb R-4-1; assay type: binding, mouse; conditions: tissue culture supernatant
Method: as §1, §2, §3, §4, §5, §6, §7, §8, §9, §10, §11, §12

[5] = system: Mouse polyclonal antibody Rapa-DVS #9; assay: Inhibition ELISA of mouse polyclonal serum Rapa-DVS #9; assay type: binding; set-up: concentration or dose not given beside the values
Method: as §1, §2, §3, §4, §5, §6, §7, §8, §9, §10, §11, §12

[6] = system: Mouse polyclonal antibody Rapa-DVS #7; assay: Inhibition ELISA of mouse polyclonal serum Rapa-DVS #7; assay type: binding; set-up: concentration or dose not given beside the values
Method: as §1, §2, §3, §4, §5, §6, §7, §8, §9, §10, §11, §12

Molecule | Percent inhibition of MoAb R-1-5 (MoAb R-1-5) | Percent inhibition of MoAb R-1-1 (MoAb R-1-1) | Percent inhibition of Rabbit #1 polyclonal antibody [1] | Percent inhibition of MoAb R-3-1 (MoAb R-3-1) | Percent inhibition of Chicken polyclonal antibody [2] | Percent inhibition of MoAb R-2-2 (MoAb R-2-2) | Mixed Lymphocyte Reaction IC50, Mean (lymphocytes) | Percent inhibition of MoAb R-4-7 (MoAb R-4-7) | Percent inhibition of mouse polyclonal antibody Rapa-27 #12 ([3]; listed as Met 3) | Percent inhibition of mouse polyclonal antibody Rapa-27 #12 ([3]; listed as metabolite # 3) | Percent inhibition of MoAb R-5-3 (MoAb R-5-3) | Relative Concentration in whole blood [4] | Percent inhibition of MoAb R-4-1 (MoAb R-4-1) | Percent inhibition of mouse polyclonal antibody Rapa-DVS #9 [5] | Percent inhibition of mouse polyclonal antibody Rapa-DVS #7 [6] | Percent inhibition of mouse polyclonal antibody Rapa-27 #12 [3]
C=CCC1C=C(C)CC(C)CC(OC)C2OC(O)(C(=O)C(=O)N3CCCCC3C(=O)OC(C(C)=CC3CCC(O)C(OC)C3)C(C)C(O)CC1=O)C(C)CC2O (stereo not shown) [FK met 1, 13-O-Demethyl] | 24% | 46% | 0% | 0% | 0% | 19% | – | – | – | – | – | – | – | – | – | –
C=CCC1C=C(C)CC(C)CC(O)C2OC(O)(C(=O)C(=O)N3CCCCC3C(=O)OC(C(C)=CC3CCC(O)C(OC)C3)C(C)C(O)CC1=O)C(C)CC2OC (stereo not shown) [FK met 2, 15-O-Demethyl] | 36% | 57% | 0% | 0% | 0% | 16% | – | – | – | – | – | – | – | – | – | –
C=CCC1C=C(C)CC(C)CC(OC)C2OC(O)(C(=O)C(=O)N3CCCCC3C(=O)OC(C(C)=CC3CCC(O)C(O)C3)C(C)C(O)CC1=O)C(C)CC2OC (stereo not shown) [FK met 3, 31-O-Demethyl] | 26% | 45% | 0% | 0% | 0% | 9% | – | – | – | – | – | – | – | – | – | –
C=CCC1C=C(C)CC(C)CC(OC)C2OC(O)(C(=O)C(=O)N3CCCCC3C(=O)OC(C(C)=CC3CCC(O)C(O)C3)C(C)C(O)CC1=O)C(C)CC2O (stereo not shown) [FK met 4, 13,3 1-Didemethyl] | 38% | 53% | 0% | 0% | 13% | 13% | – | – | – | – | – | – | – | – | – | –
C=CCC1C=C(C)CC(C)CC(O)C2OC(O)(C(=O)C(=O)N3CCCCC3C(=O)OC(C(C)=CC3CCC(O)C(O)C3)C(C)C(O)CC1=O)C(C)CC2OC (stereo not shown) [FK met 5, 15,3 1-O-Didemethyl] | 26% | 46% | 0% | 0% | 0% | 13% | – | – | – | – | – | – | – | – | – | –
CO[C@@H]1C[C@H](C[C@@H](C)[C@@H]2CC(=O)[C@H](C)/C=C(\C)[C@@H](O)[C@@H](OC)C(=O)[C@H](C)C[C@H](C)/C=C/C=C/C=C(\C)[C@@H](O)C[C@@H]3CC[C@@H](C)[C@@](O)(O3)C(=O)C(=O)N3CCCC[C@H]3C(=O)O2)CC[C@H]1O [M3, 7-O-Demethyl Rapamycin] | 56% | 32% | 15% | 92% | 35% | 26% | 2.85 ng/mL | 67% | 43% | 42% | 37% | 0.10 | 85% | 30.8% | 28.3% | –
CO[C@H]1C[C@@H]2CC[C@@H](C)[C@@](O)(O2)C(=O)C(=O)N2CCCC[C@H]2C(=O)O[C@H]([C@H](C)C[C@@H]2CC[C@@H](O)[C@H](O)C2)CC(=O)[C@H](C)/C=C(\C)[C@@H](O)[C@@H](OC)C(=O)[C@H](C)C[C@H](C)/C=C/C=C/C=C/1C [M4, 41-O-Demethyl Rapamycin] | 57% | 30% | 28% | 96% | 18% | 71% | 5.9 ng/mL | 54% | – | – | 47% | 0.10 | 82% | 28.6% | 40.1% | 37%
CO[C@H]1C[C@@H]2CC[C@@H](C)[C@@](O)(O2)C(=O)C(=O)N2CCCC[C@H]2C(=O)O[C@H]([C@H](C)C[C@@H]2CC[C@@H](O)[C@H](O)C2)CC(=O)[C@H](C)/C=C(\C)[C@@H](O)[C@@H](O)C(=O)[C@H](C)C[C@H](C)/C=C/C=C/C=C/1C [M5, 32,41-Demethyl Rapamycin] | 44% | 29% | 16% | 94% | 35% | 10% | 4.67 ng/mL | 87% | – | – | 46% | 0.02 | 88% | 37.3% | 39.8% | 0%
keyhole limpet hemocyanin [KLH] | 10% | 3% | 0% | 0% | 0% | 16% | – | – | – | – | – | – | – | 12.5% | 7.8% | 0%
